Test results reported in the METLIN SMRT retention time set (Domingo-Almenara et al. 2019).

Test: gradient 5% acetonitrile 3 min, to 50% in 2 min, to 85% in 15 min, held 3 min, 100 µL/min
Settings: column: Zorbax Extend-C18 2.1 x 50 mm; eluents: water / acetonitrile, 0.1% formic acid
Summary of the method: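 Standards, all pure, were combined into mixtures of ~100 molecules and run at 100 μL/min on a Zorbax Extend-C18 column (2.1 × 50 mm, 1.8 μm) with water and acetonitrile, each containing 0.1% formic acid. A coupled quadrupole time-of-flight mass spectrometer operated in positive and negative ionization mode. Retention time values come from computationally picked adduct peaks, each inspected manually.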

Row | SMILES | RP-LC retention time [s]
1 | COc1ccc(-c2nnc(COc3cccc(NC(=O)c4ccc(C)s4)c3)o2)cc1 | 988
2 | Cc1nc(C)c(C(=O)Nc2nc(-c3ccc4c(c3)CCCC4)cs2)s1 | 1170
3 | COc1cc(-c2c(NC(=O)c3ccco3)sc3ccccc3c2=O)cc(OC)c1OC | 828
4 | CCn1nc(-c2csc(S(=O)(=O)N3CCC(C)CC3)c2)ccc1=O | 971
5 | CCn1c(=O)c(N2CCC(NC(=O)NCc3ccccc3)CC2)nc2ccccc21 | 838
6 | O=C(NCc1ccccc1Cl)C(=O)NCC1CCN(C(=O)COc2ccccc2)CC1 | 566
7 | Cn1cc(S(=O)(=O)N2CCC(C(=O)NC3CCCCCCC3)CC2)cc1C(=O)N1CCCC1 | 844
8 | CC1CCN(c2cc(N3CCN(C)CC3)ccc2NC(=O)c2cc(C#N)c[nH]2)CC1 | 595
9 | O=C(Nc1ccc(Cl)c([N+](=O)[O-])c1)Nc1nc2ccccc2s1 | 1050
10 | CC(Oc1ccccc1)C(=O)N1CCC(c2cc(N)on2)CC1 (configuration not stated) | 674
11 | O=C(OCc1cccnc1)c1cn(-c2cccc(Cl)c2)c(=O)c2ccccc12 | 813
12 | O=C(Cn1nc(N2CCCC2)c2ccccc2c1=O)NCc1ccccc1 | 837
13 | COc1cc2c(cc1OC)C(C(=O)Nc1ccc3c(c1)OCCO3)C(c1cccs1)N(C)C2=O (configuration not stated) | 783
14 | COc1ccc(-c2onc(C)c2C)cc1S(=O)(=O)N1CCN(c2ccccn2)CC1 | 683
15 | Cc1ccc2nc(-c3ccncc3)cc(C(=O)Nc3nc(-c4ccccc4)c(C)s3)c2c1 | 990
16 | Cc1cnc(C(=O)N[C@@H]2CCC[C@@H]2C(=O)NC2CCCC2)cn1 | 638
17 | O=C(Nc1cnc(N2CCOCC2)nc1)c1ccc(Br)cc1 | 810
18 | N[C@@H](Cc1cc(CP(=O)(O)O)cc(-c2ccccc2Cl)c1)C(=O)O | 647
19 | Cc1oc2ncn(CC(=O)N3CCC(C(N)=O)CC3)c(=O)c2c1C | 613
20 | CCOC(=O)C1CCN(S(=O)(=O)c2cc(-c3nc(C(C)(C)C)cs3)cs2)CC1 | 1310
21 | Cn1c(=O)c2nc(S(=O)(=O)CCC(=O)Nc3ccc(F)cc3Cl)n(C)c2n(C)c1=O | 758
22 | Cc1c(Cl)ccc2c(=O)c3c([nH]c12)CCN(CC(=O)NCc1ccc2c(c1)OCO2)C3 | 666

Row | SMILES | RP-LC retention time [s]
23 | Cc1ccc(C(=O)N2CCCC(COc3ccc(C(=O)N4CCOCC4)cc3)C2)cc1 (configuration not stated) | 793
24 | Cn1cc(CN2CCC(C(=O)NCCCN3CCCCC3)CC2)c2cc(Cl)ccc21 | 586
25 | CCc1noc(NC(C)=O)c1-c1ccc(OC)c(S(=O)(=O)NCc2ccccc2)c1 | 766
26 | O=C(c1ccc2[nH]ccc2c1)N1C[C@@H]2C[C@H]1C[C@@H]2NS(=O)(=O)c1ccccc1 | 730
27 | COCCNC(=O)C1CCCN(c2nccc(C)n2)C1 (configuration not stated) | 584
28 | CS(=O)(=O)NCC1CCC(C(=O)Nc2ccc3c(c2)Cc2ccccc2-3)CC1 (configuration not stated) | 840
29 | COc1ccc(OC)c2sc(N3CCN(S(=O)(=O)c4cccs4)CC3)nc12 | 896
30 | Cc1ccc(CNC(=O)CN2C(=O)NC3(CCCCC3)C2=O)cc1 | 774
31 | CCOC(=O)c1noc2ncnc(Nc3cc(C)ccc3C)c12 | 1030
32 | COCCn1cc(C(=O)NC2CCCC2)c2nn(-c3ccccc3)c(=O)c-2c1 | 843
33 | Cc1ccccc1Nc1c(-c2cccc(Br)c2)nc2ccc(Br)cn12 | 1150
34 | O=C(Cc1c[nH]c2ccccc12)N1CCN(c2cc(-c3cccs3)[nH]n2)CC1 | 756
35 | Cc1ccc(C)c(Sc2ccc(N3CCC(C(=O)NCc4ccco4)CC3)nn2)c1 | 818
36 | O=C(Cn1cccc(-c2nc(-c3ccc(Cl)cc3)no2)c1=O)Nc1ccc2c(c1)OCO2 | 916
37 | CCN(C(=O)Cn1nc(C(=O)N2CCCCC2)c2ccccc21)c1ccccc1 | 944
38 | COc1ccc(Cl)cc1NC(=O)C1CC(=O)N(c2cccc(NC(C)=O)c2)C1 (configuration not stated) | 740
39 | Cc1ccccc1Cc1noc(-c2nc(-c3ccc4c(c3)OCO4)no2)n1 | 1190
40 | COc1ccc(NC(=O)C2CCN(S(=O)(=O)c3cc(-c4noc(C)n4)cs3)CC2)c(OC)c1 | 885
41 | COc1cc([C@@H]2c3cc4c(cc3[C@H](O)[C@@H](CO)[C@@H]2C(=O)NCc2ccc(C)o2)OCO4)cc(OC)c1OC | 674
42 | Cc1ccc2c(c1)N(Cc1ccc(F)cc1)N=C(C(=O)N1CCCC1)S2(=O)=O | 889
43 | CS(=O)(=O)NCC1CCC(C(=O)NCCCn2ccnc2)CC1 (configuration not stated) | 570
44 | COc1ccc(Oc2cc3c(cc2NS(=O)(=O)c2ccc(OC)c(OC)c2)n(C)c(=O)n3C)cc1 | 821

Row | SMILES | RP-LC retention time [s]
45 | O=C(CSc1ccc(N2CCOCC2)nn1)Nc1ccc(Cl)cc1 | 725
46 | CCN(CC)S(=O)(=O)c1cc(-c2nc(C(C)(C)C)cs2)cs1 | 1350
47 | Cc1ncsc1CN1CCC(c2nc(-c3ccc(F)cc3)n[nH]2)CC1 | 918
48 | C=CCn1c(-c2ccc([N+](=O)[O-])cc2)nc2nc3ccccc3nc21 | 825
49 | Cc1ccccc1-c1noc(Cn2c(=O)n(C(C)C)c(=O)c3ccccc32)n1 | 1160
50 | Cc1ccc2nc(-c3ccc(N(C)C)cc3)c(Nc3ccc4c(c3)OCCO4)n2c1 | 726
51 | CCn1c(=O)sc2cc(S(=O)(=O)N3CCC(C(=O)NC4CCCCC4)CC3)ccc21 | 876
52 | O=C(C1=NN(Cc2ccccc2Cl)c2ccccc2S1(=O)=O)N1CCOCC1 | 873
53 | CCCNc1cc(N2CCC(CCC(=O)N3CCC(C(=O)OCC)CC3)CC2)ncn1 | 664
54 | Cc1ncc2c(n1)C[C@@H]1CC[C@H]2N1C(=O)Nc1ccccc1 | 636
55 | Cc1nnc(-c2ccc3ccn(CC(=O)N4CCN(C5CCCCC5)CC4)c3c2)o1 | 620
56 | CCn1nc(C)c(CCNC(=O)C2CCCN(c3nn4c(=O)c5c(nc4s3)CCCC5)C2)c1C (configuration not stated) | 634
57 | Cc1cc2nn(CC(=O)Nc3cc(F)ccc3F)c(=O)n2c(Nc2ccc(F)c(C)c2)n1 | 1100
58 | COc1ccc(CC(=O)N2CCC3(CC2)NC(=O)c2cc(F)ccc2N3C)cc1 | 768
59 | CCn1c(CCNC(=O)c2cc(C)cc(C)c2)nc2cccnc21 | 666
60 | CCn1ccc(C(=O)N2CCCC2c2nc(-c3ccc(F)cc3F)no2)n1 (configuration not stated) | 827
61 | Cc1ccccc1-c1nc(Cn2c(C)nc3onc(C)c3c2=O)c(C)o1 | 1120
62 | Cn1cc(-c2nc(C(=O)Nc3cccc(Cl)c3)cs2)c2cccnc21 | 1110
63 | CCCNC(=O)CCNc1c(-c2ccc(F)cc2)nc2cnccn12 | 648
64 | O=C(C1CCN(S(=O)(=O)c2ccc(-c3noc(CCC4CCCC4)n3)cc2)CC1)N1CCCC1 | 1190
65 | CNC(=O)c1cnn(-c2nc(N)c3ncn([C@@H]4O[C@H](CO)C(O)C4O)c3n2)c1 (some centres not stated) | 586
66 | CC1(C(=O)NCc2ccccc2)CN(S(C)(=O)=O)CC(=O)N1Cc1ccccc1Cl (configuration not stated) | 778

Row | SMILES | RP-LC retention time [s]
67 | COc1cccc(-n2c(N3CCCC(C(=O)NCCC(C)C)C3)nc3ccsc3c2=O)c1 (configuration not stated) | 872
68 | O=C(Oc1ccccc1)N1CCC(CNS(=O)(=O)/C=C/c2ccccc2)CC1 | 912
69 | CCOc1ccc(Cc2nc(-c3ccc4oc(C)nc4c3)no2)cc1OCC | 1040
70 | COc1ccccc1CNC1=NCCNC12CCN(S(=O)(=O)c1ccc(F)cc1)CC2 | 704
71 | Cc1cc(-c2nnc(C3CCC3)o2)c(C)n1CC(=O)NCc1ccc(C(F)(F)F)cc1 | 941
72 | O=C(Nc1nnc(C2=COCCO2)o1)c1ccco1 | 559
73 | O=C([C@@H]1C[C@H](F)CN1S(=O)(=O)c1ccc(F)cc1)N1CCCCC1 | 784
74 | Cc1nn(CC(=O)NC2CCCc3ccccc32)c(=O)c2c(C)n(-c3ccccc3)nc12 (configuration not stated) | 937
75 | CN(C)C(=O)c1ccc2c(c1)nnn2CCNC(=O)Nc1ccccc1Br | 675
76 | Cc1ccccc1NC(=O)c1nc2ccccc2[nH]c1=O | 735
77 | Cc1ccc(NC(=O)N2CCCC(C)(C(=O)NCc3ccc(F)cc3)C2)c(C)c1 (configuration not stated) | 949
78 | Cc1oc(-c2[nH]ncc2C(=O)N2CCCC2)cc1S(=O)(=O)Nc1ccc(C(C)C)cc1 | 835
79 | Nc1ccccc1C(=O)Nc1ccc(Cl)cc1Cl | 1080
80 | Cc1nnc(-c2cccc(Cl)c2)nc1NC(C)C | 717
81 | CCN1c2ccc(F)cc2C(=O)NC12CCN(C(=O)c1ccc3c(c1)OCO3)CC2 | 749
82 | O=C(CN1C(=O)c2cccnc2Sc2ccccc21)NCCc1c[nH]c2ccc(Cl)cc12 | 817
83 | CCc1ccc(S(=O)(=O)Nc2ccc3c(c2)N(C(=O)c2cccs2)CC3)s1 | 923
84 | OCc1nnn(-c2ccccc2)c1CO | 642
85 | Cc1nnc2ccc(-c3cccc(NC(=O)C4CCN(S(C)(=O)=O)CC4)c3)nn12 | 605
86 | Cc1ccc(NC(=O)NCCc2cn(CC(C)C)c3ncccc23)c(Cl)c1 | 937
87 | CN1c2ccc(Cl)cc2C(=O)NC12CCN(C(=O)NCCc1ccccc1)CC2 | 819
